Results from PubChem BioAssay (NCI).
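Cultured in 96-well plates, cells were exposed to test compound for 48 hours across five concentrations. Definition used: TGI = concentration required for complete inhibition of growth.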

Tests used:
Assay in all cases: DTP human tumour cell line panel, 48 h
A549 NSCLC = tested on: A549 NSCLC
CAKI-1 renal = tested on: CAKI-1 renal
HCT-116 colon = tested on: HCT-116 colon
HCT-15 colon = tested on: HCT-15 colon
HS 578T breast = tested on: HS 578T breast
KM12 colon = tested on: KM12 colon
MALME-3M melanoma = tested on: MALME-3M melanoma
OVCAR-3 ovarian = tested on: OVCAR-3 ovarian
OVCAR-4 ovarian = tested on: OVCAR-4 ovarian
RPMI-8226 leukemia = tested on: RPMI-8226 leukemia
RXF 393 renal = tested on: RXF 393 renal
SF-268 CNS = tested on: SF-268 CNS
SF-295 CNS = tested on: SF-295 CNS
SF-539 CNS = tested on: SF-539 CNS
SK-OV-3 ovarian = tested on: SK-OV-3 ovarian
SN12C renal = tested on: SN12C renal
SR leukemia = tested on: SR leukemia
TK-10 renal = tested on: TK-10 renal
U251 CNS = tested on: U251 CNS
UO-31 renal = tested on: UO-31 renal

Cc1nn(-c2ccccc2)c2c1C(c1ccc(Cl)cc1)NC(=S)N2 (centres undefined)
TGI (A549 NSCLC): 69.5 µM | TGI (CAKI-1 renal): > 100 µM | TGI (HCT-116 colon): > 100 µM | TGI (HCT-15 colon): 37.7 µM | TGI (HS 578T breast): > 100 µM | TGI (KM12 colon): 64.8 µM | TGI (MALME-3M melanoma): 93.9 µM | TGI (OVCAR-3 ovarian): > 100 µM | TGI (OVCAR-4 ovarian): > 100 µM | TGI (RPMI-8226 leukemia): 48.7 µM | TGI (RXF 393 renal): 35.3 µM | TGI (SF-268 CNS): > 100 µM | TGI (SF-295 CNS): 62.3 µM | TGI (SF-539 CNS): 37.4 µM | TGI (SK-OV-3 ovarian): 59.8 µM | TGI (SN12C renal): 47.5 µM | TGI (SR leukemia): > 100 µM | TGI (TK-10 renal): 43.6 µM | TGI (U251 CNS): 48.1 µM | TGI (UO-31 renal): 28.8 µM

CN(C)CCCN1CCC2(CCC(C(C)(C)C)CC2)CC1
TGI (A549 NSCLC): 12.1 µM | TGI (CAKI-1 renal): 7.55 µM | TGI (HCT-116 colon): 3.19 µM | TGI (HCT-15 colon): 9.55 µM | TGI (HS 578T breast): 4.89 µM | TGI (KM12 colon): 6.18 µM | TGI (MALME-3M melanoma): 3.4 µM | TGI (OVCAR-3 ovarian): 10.9 µM | TGI (OVCAR-4 ovarian): 17.3 µM | TGI (RPMI-8226 leukemia): 10.5 µM | TGI (RXF 393 renal): 4.13 µM | TGI (SF-268 CNS): 7.29 µM | TGI (SF-295 CNS): 3.96 µM | TGI (SF-539 CNS): 3.89 µM | TGI (SK-OV-3 ovarian): 22.8 µM | TGI (SN12C renal): 20.6 µM | TGI (SR leukemia): 4.85 µM | TGI (TK-10 renal): 3.34 µM | TGI (U251 CNS): 3.64 µM | TGI (UO-31 renal): 3.4 µM

Cc1nc2c(nc1C)-c1[nH]c3c(c1C(=O)C2=O)CCCC3=O
TGI (A549 NSCLC): 16.3 µM | TGI (HCT-15 colon): 8.08 µM | TGI (HS 578T breast): > 59.2 µM | TGI (KM12 colon): 4.43 µM | TGI (MALME-3M melanoma): 2.82 µM | TGI (OVCAR-3 ovarian): 2.07 µM | TGI (OVCAR-4 ovarian): 3.04 µM | TGI (RPMI-8226 leukemia): 3.22 µM | TGI (RXF 393 renal): 2.41 µM | TGI (SF-268 CNS): 2.9 µM | TGI (SF-295 CNS): 3.31 µM | TGI (SF-539 CNS): 3.12 µM | TGI (SK-OV-3 ovarian): 6.87 µM | TGI (SN12C renal): 3.28 µM | TGI (SR leukemia): 6.4 µM | TGI (TK-10 renal): 34.8 µM | TGI (U251 CNS): 2.92 µM | TGI (UO-31 renal): 10.3 µM

Nc1nc(N)c2c3c(cnc2n1)CC(c1ccccc1)CC3 (centres undefined)
TGI (A549 NSCLC): > 100 µM | TGI (CAKI-1 renal): > 100 µM | TGI (HCT-116 colon): 32.5 µM | TGI (HCT-15 colon): > 100 µM | TGI (HS 578T breast): > 100 µM | TGI (KM12 colon): > 100 µM | TGI (MALME-3M melanoma): > 100 µM | TGI (OVCAR-3 ovarian): > 100 µM | TGI (OVCAR-4 ovarian): 41.9 µM | TGI (RPMI-8226 leukemia): > 100 µM | TGI (RXF 393 renal): 47.9 µM | TGI (SF-268 CNS): 58.5 µM | TGI (SF-295 CNS): > 100 µM | TGI (SF-539 CNS): > 100 µM | TGI (SK-OV-3 ovarian): 63 µM | TGI (SN12C renal): 53.3 µM | TGI (SR leukemia): 66.1 µM | TGI (TK-10 renal): 97.9 µM | TGI (U251 CNS): > 100 µM

N#Cc1c(-c2ccc(Cl)cc2Cl)nc2[nH][nH]c(=S)n2c1=O
TGI (A549 NSCLC): > 100 µM | TGI (CAKI-1 renal): > 100 µM | TGI (HCT-116 colon): > 100 µM | TGI (HCT-15 colon): > 100 µM | TGI (HS 578T breast): > 100 µM | TGI (KM12 colon): > 100 µM | TGI (MALME-3M melanoma): > 100 µM | TGI (OVCAR-4 ovarian): > 100 µM | TGI (RPMI-8226 leukemia): > 100 µM | TGI (RXF 393 renal): > 100 µM | TGI (SF-268 CNS): > 100 µM | TGI (SF-295 CNS): > 100 µM | TGI (SK-OV-3 ovarian): > 100 µM | TGI (SN12C renal): > 100 µM | TGI (SR leukemia): > 100 µM | TGI (TK-10 renal): > 100 µM | TGI (U251 CNS): > 100 µM | TGI (UO-31 renal): > 100 µM

COC(=O)c1ccccc1/C=C1\Cc2ccc(C)c(C)c2C1=O
TGI (A549 NSCLC): > 100 µM | TGI (CAKI-1 renal): > 100 µM | TGI (HCT-116 colon): > 100 µM | TGI (HCT-15 colon): > 100 µM | TGI (HS 578T breast): > 100 µM | TGI (KM12 colon): > 100 µM | TGI (MALME-3M melanoma): > 100 µM | TGI (OVCAR-3 ovarian): > 100 µM | TGI (OVCAR-4 ovarian): > 100 µM | TGI (RPMI-8226 leukemia): > 100 µM | TGI (RXF 393 renal): > 100 µM | TGI (SF-268 CNS): > 100 µM | TGI (SF-295 CNS): > 100 µM | TGI (SF-539 CNS): > 100 µM | TGI (SN12C renal): > 100 µM | TGI (SR leukemia): > 100 µM | TGI (TK-10 renal): > 100 µM | TGI (U251 CNS): > 100 µM | TGI (UO-31 renal): > 100 µM
